From ChEMBL document CHEMBL1121931, “Synthesis and pharmacological evaluation of conformationally restricted phenothiazine analogues” (J Med Chem, 1982)
Blank lines part the entries; values can stand above or below the molecule they belong to.

How the values were obtained:
Rattus norvegicus [1] = organism: Rattus norvegicus; test: Compound's potency to increase the level of the dopamine metabolite homovanillic acid (HVA), levels in male wistar rats at 0.54 ug/g dose; format: functional
Rattus norvegicus [2] = organism: Rattus norvegicus; test: Compound's potency to increase the level of the dopamine metabolite DOPAC levels in male wistar rats at 0.95 ug/g dose; format: functional
Dopamine receptor = Dopamine receptor (Bos taurus, UniProt Q95136+P20288); test: Compound was tested for its ability to displace [3H]spiroperidol from dopamine receptor; format: protein assay
Rattus norvegicus [3] = organism: Rattus norvegicus; test: Compound's potency to increase the level of the dopamine metabolite DOPAC levels in male wistar rats at 1.26 ug/g dose; format: functional
Rattus norvegicus [4] = organism: Rattus norvegicus; test: Compound's potency to increase the level of the dopamine metabolite homovanillic acid (HVA), levels in male wistar rats at 1.10 ug/g dose; format: functional
Rattus norvegicus [5] = organism: Rattus norvegicus; test: Compound's potency to increase the level of the dopamine metabolite DOPAC levels in male wistar rats at 0.62 ug/g dose; format: functional
Rattus norvegicus [6] = organism: Rattus norvegicus; test: Compound's potency to increase the level of the dopamine metabolite homovanillic acid (HVA), levels in male wistar rats at 0.39 ug/g dose; format: functional
Rattus norvegicus [7] = organism: Rattus norvegicus; test: Compound's potency to increase the level of the dopamine metabolite homovanillic acid (HVA), levels in male wistar rats at 0.44 ug/g dose; format: functional
Rattus norvegicus [8] = organism: Rattus norvegicus; test: Compound's potency to increase the level of the dopamine metabolite DOPAC levels in male wistar rats at 0.73 ug/g dose; format: functional
Rattus norvegicus [9] = organism: Rattus norvegicus; test: Compound's potency to increase the level of the dopamine metabolite DOPAC levels in male wistar rats at 0.6 ug/g dose; format: functional
Rattus norvegicus [10] = organism: Rattus norvegicus; test: Compound's potency to increase the level of the dopamine metabolite homovanillic acid (HVA), levels in male wistar rats at 0.63 ug/g dose; format: functional
Rattus norvegicus [11] = organism: Rattus norvegicus; test: Compound's potency to increase the level of the dopamine metabolite DOPAC levels in male wistar rats at 1.15 ug/g dose; format: functional

SMILES: CN(C)CC1Cc2cccc3c2N(C1)c1cc(Cl)ccc1S3 (stereo not given)
Control (Rattus norvegicus [1]): 70%
Control (Rattus norvegicus [2]): 89%
IC50 (Dopamine receptor): 13 µM

SMILES: CN(C)C1CCN2c3cc(Cl)ccc3Sc3cccc1c32 (stereo not given)
Control (Rattus norvegicus [5]): 98%
Control (Rattus norvegicus [6]): 88%

SMILES: CN(C)C1CCN2c3ccccc3Sc3ccc(Cl)c1c32 (stereo not given)
Control (Rattus norvegicus [7]): 100%
Control (Rattus norvegicus [8]): 115%

SMILES: CN(C)C1CCN2c3ccccc3Sc3cccc1c32 (stereo not given)
Control (Rattus norvegicus [9]): 95%
Control (Rattus norvegicus [7]): 93%

Now from value to molecule, other results behind:

IC50 (Dopamine receptor): 1.2 µM
SMILES: CN(C)CC1Cc2c(Cl)ccc3c2N(C1)c1ccccc1S3 (stereo not given)
Control (Rattus norvegicus [3]): 118%
Control (Rattus norvegicus [4]): 157%

IC50 (Dopamine receptor): 1.4e-06 µM
SMILES: CN(C)CC1Cc2cccc3c2N(C1)c1ccccc1S3 (stereo not given)
Control (Rattus norvegicus [10]): 90%
Control (Rattus norvegicus [11]): 107%
